Measured values reported in the supplement of paper PMC10331698.
± gives the standard deviation of the averaged measurements.

Legend:
Assay in all cases: level (log10 ratio to DMSO vehicle control); higher = higher biomarker level / cell amount than vehicle control
[1] = compound: OCCCC(F)(F)C(F)(F)C(F)(F)C(F)(F)C(F)(F)C(F)(F)C(F)(F)C(F)(F)F [3-(Perfluorooctyl)propanol]; details: 6700 nM; in DMSO
Procedure: (§1)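 BioMAP Diversity Plus panel of 12 human primary cell co-culture systems (3C, 4H, LPS, SAg, BT, BF4T, BE3C, CASM3C, HDF3CGF, KF3CT, MyoF, Mphg). Compounds were added 1 h before stimulation and left for 24 h (MyoF 48 h; BT 72 h for soluble read-outs or 6 d for IgG). Biomarkers were read by ELISA, cytotoxicity by SRB, PBMC viability and proliferation by Alamar Blue. Each well value was divided by the mean of 8 DMSO control wells on the same plate and log10 transformed; duplicate blinded samples were tested at 4 concentrations.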

[2] = compound: OCC(F)(F)C(F)(F)C(F)(F)C(F)(F)C(F)(F)C(F)(F)C(F)(F)C(F)(F)CO [1H,1H,10H,10H-Perfluorodecane-1,10-diol]; details: in DMSO
Procedure: as §1

[3] = compound: O=C(Cl)C(F)(F)C(F)(F)C(F)(F)C(=O)Cl [Hexafluoroglutaryl chloride]; details: in DMSO
Procedure: as §1

[4] = compound: FC(F)(F)C(F)(F)C(F)(F)C(F)(F)CCI [1H,1H,2H,2H-Perfluorohexyl iodide]; details: in DMSO
Procedure: as §1

[5] = compound: O=C(O)C(F)(F)C(F)(F)C(F)(F)C(F)(F)C(F)(F)C(F)(F)C(F)(F)F [Ammonium perfluorooctanoate]; details: in DMSO
Procedure: as §1

[6] = compound: C=C(C)C(=O)OCC(F)(F)C(F)(F)C(F)(F)F [2,2,3,3,4,4,4-Heptafluorobutyl methacrylate]; details: in DMSO
Procedure: as §1

[7] = compound: C=CC(=O)OCC(F)(F)C(F)(F)C(F)(F)C(F)(F)C(F)(F)C(F)(F)C(F)(F)C(F)F [1H,1H,9H-Perfluorononyl acrylate]; details: in DMSO
Procedure: as §1

Test System | level (log10) [1] | level (log10) ([2]; 6700 nM) | level (log10) ([2]; 20000 nM) | level (log10) ([2]; 60000 nM) | level (log10) ([3]; 6700 nM) | level (log10) ([3]; 20000 nM) | level (log10) ([3]; 60000 nM) | level (log10) ([4]; 6700 nM) | level (log10) ([4]; 20000 nM) | level (log10) ([4]; 60000 nM) | level (log10) ([5]; 6700 nM) | level (log10) ([5]; 20000 nM) | level (log10) ([5]; 60000 nM) | level (log10) ([6]; 6700 nM) | level (log10) ([6]; 20000 nM) | level (log10) ([6]; 60000 nM) | level (log10) ([7]; 6700 nM) | level (log10) ([7]; 20000 nM) | level (log10) ([7]; 60000 nM)
3C:CD87/uPAR | -0.03 ± 0.04 | -0.063 ± 0.064 | -0.051 ± 0.075 | -0.165 | -0.009 ± 0.0071 | 0.0225 ± 0.022 | 0.003 ± 0.041 | 0.0035 ± 0.013 | -0.005 ± 0.0071 | 0.0085 ± 0.025 | -0.007 ± 0.0042 | -0.0095 ± 0.013 | -0.056 ± 0.011 | -0.01 ± 0.025 | -0.0125 ± 0.036 | 0.012 ± 0.0085 | 0.012 ± 0.04 | 0.016 ± 0.013 | 0.017 ± 0.0099
3C:CXCL8/IL-8 | -0.008 ± 0.013 | -0.013 ± 0.035 | -0.007 ± 0.024 | 0.03 | -0.007 ± 0.023 | -0.0075 ± 0.029 | 0.047 ± 0.048 | -0.0135 ± 0.018 | -0.007 ± 0.014 | 0.0495 ± 0.00071 | 0.0015 ± 0.0021 | 0.023 ± 0.027 | 0.085 ± 0.065 | 0.0395 ± 0.042 | 0.039 ± 0.0014 | 0.051 ± 0.04 | 0.001 ± 0.03 | 0.02 ± 0.023 | 0.029 ± 0.033
3C:CXCL9/MIG | -0.0075 ± 0.0092 | -0.0145 ± 0.011 | -0.016 ± 0.0071 | -0.007 | -0.0035 ± 0.005 | -0.004 ± 0.0014 | 0.002 ± 0.0085 | 0.0045 ± 0.00071 | -0.0085 ± 0.005 | 0.007 ± 0.0057 | -0.006 ± 0.02 | 0.002 ± 0.0099 | 0.0285 ± 0.013 | -0.0035 ± 0.005 | 0.002 | 0.0095 ± 0.021 | 0.009 ± 0.0028 | 0.0005 ± 0.011 | -0.0055 ± 0.005
3C:HLA-DR | -0.03 ± 0.0028 | -0.039 ± 0.02 | -0.031 ± 0.021 | -0.131 | -0.008 ± 0.023 | -0.006 ± 0.013 | -0.0085 ± 0.0035 | -0.0005 ± 0.029 | -0.035 ± 0.04 | -0.0305 ± 0.04 | -0.005 ± 0.0042 | 0 ± 0.0014 | 0.004 ± 0.016 | -0.01 ± 0.013 | -0.0055 ± 0.0078 | 0.001 ± 0.0042 | -0.002 ± 0.0085 | 0.0155 ± 0.0021 | -0.0055 ± 0.005
3C:Proliferation | -0.385 ± 0.027 | -0.047 ± 0.068 | -0.0735 ± 0.06 | -0.403 | -0.0045 ± 0.026 | 0.006 ± 0.018 | -0.0345 ± 0.036 | -0.0115 ± 0.0064 | -0.051 ± 0.064 | -0.047 ± 0.023 | -0.001 ± 0.034 | 0.015 ± 0.0042 | -0.0635 ± 0.08 | -0.0315 ± 0.044 | -0.0325 ± 0.033 | -0.049 ± 0.02 | -0.092 ± 0.031 | -0.186 ± 0.021 | -0.415 ± 0.013
3C:SRB | -0.0195 ± 0.018 | 0.01 ± 0.034 | -0.021 ± 0.033 | -0.106 | -0.0025 ± 0.0035 | 0.008 ± 0.013 | 0.013 ± 0.0071 | 0.0005 ± 0.018 | 0.004 ± 0.013 | -0.006 ± 0.0028 | -0.0015 ± 0.012 | -0.014 ± 0.0042 | -0.05 ± 0.0099 | -0.0125 ± 0.0021 | -0.001 ± 0.0057 | 0.0035 ± 0.00071 | 0.0015 ± 0.0078 | 0.016 ± 0.0042 | -0.014 ± 0.023
4H:CCL2/MCP-1 | 0.0195 ± 0.0078 | -0.0685 ± 0.0064 | -0.105 ± 0.018 | -0.092 | -0.022 ± 0.0042 | -0.015 | -0.015 | 0.0175 ± 0.021 | -0.008 ± 0.016 | 0.0195 ± 0.042 | -0.01 ± 0.0057 | -0.026 ± 0.0085 | -0.0475 ± 0.039 | 0.0125 ± 0.012 | -0.007 ± 0.0099 | 0.0335 ± 0.047 | -0.0255 ± 0.0064 | -0.0105 ± 0.028 | 0.0245 ± 0.019
4H:CCL26/Eotaxin-3 | -0.009 ± 0.0042 | -0.005 ± 0.037 | -0.0125 ± 0.035 | -0.179 | 0.016 ± 0.017 | 0.021 ± 0.027 | 0.013 ± 0.016 | -0.0145 ± 0.032 | -0.06 ± 0.013 | -0.1 ± 0.0042 | -0.005 ± 0.0028 | -0.013 ± 0.0057 | -0.0385 ± 0.028 | 0.005 ± 0.02 | 0.0045 ± 0.0078 | -0.0035 ± 0.022 | -0.0045 ± 0.0035 | -0.016 ± 0.031 | -0.052 ± 0.024
4H:CD62P/P-selectin | -0.0465 ± 0.022 | -0.029 ± 0.052 | -0.07 ± 0.083 | -0.169 | -0.012 ± 0.033 | 0.0045 ± 0.026 | -0.0045 ± 0.043 | -0.001 ± 0.011 | 0.023 ± 0.011 | 0.0135 ± 0.012 | 0.0195 ± 0.012 | 0.043 ± 0.088 | 0.0515 ± 0.036 | -0.002 ± 0.052 | -0.008 ± 0.037 | 0.129 ± 0.021 | -0.0135 ± 0.037 | -0.045 ± 0.011 | -0.109
4H:CD87/uPAR | -0.0615 ± 0.025 | -0.057 ± 0.0099 | -0.083 ± 0.0042 | -0.097 | 0.0165 ± 0.0035 | 0.0115 ± 0.03 | 0.004 ± 0.018 | -0.0115 ± 0.0021 | -0.0245 ± 0.022 | -0.0255 ± 0.0064 | 0.0015 ± 0.028 | 0.026 ± 0.0057 | 0.034 ± 0.023 | 0.035 ± 0.03 | 0.012 ± 0.0014 | 0.055 ± 0.048 | -0.024 ± 0.035 | -0.043 ± 0.028 | -0.034 ± 0.061
4H:CD106/VCAM-1 | 0.0065 ± 0.021 | -0.0445 ± 0.011 | -0.049 ± 0.03 | -0.166 | 0.0015 ± 0.0092 | -0.005 ± 0.021 | 0.001 ± 0.011 | 0.0045 ± 0.0021 | -0.0125 ± 0.0092 | -0.0525 ± 0.011 | 0.0225 ± 0.0021 | 0.036 ± 0.0085 | 0.0215 ± 0.026 | 0.012 ± 0.04 | 0.019 ± 0.028 | 0.02 ± 0.025 | -0.02 ± 0.0071 | -0.023 ± 0.0028 | -0.0425 ± 0.03
4H:SRB | -0.0015 ± 0.00071 | -0.0085 ± 0.011 | -0.026 ± 0.014 | -0.153 | 0 ± 0.0014 | 0.0055 ± 0.015 | 0 ± 0.014 | 0.0015 ± 0.0035 | -0.0045 ± 0.026 | 0.0005 ± 0.0078 | -0.004 ± 0.011 | -0.0115 ± 0.005 | -0.0245 ± 0.0078 | -0.0025 ± 0.005 | -0.005 ± 0.0042 | -0.001 ± 0.0014 | -0.008 ± 0.0042 | -0.008 ± 0.0014 | -0.0235 ± 0.0021
4H:VEGFR2 | -0.013 ± 0.0085 | -0.0455 ± 0.07 | -0.0125 ± 0.0092 | 0.055 | -0.0325 ± 0.029 | 0.018 ± 0.031 | 0.047 ± 0.035 | -0.029 ± 0.065 | -0.058 | -0.0605 ± 0.043 | -0.0055 ± 0.0035 | -0.009 ± 0.0014 | -0.0455 ± 0.098 | -0.0065 ± 0.03 | 0.01 | 0.0085 ± 0.0021 | -0.018 ± 0.014 | -0.009 ± 0.057 | 0.0045 ± 0.03
